Reference: article PMC9177597, “Structural basis of substrate recognition and translocation by human very long-chain fatty acid transporter ABCD1” (Nature Communications, 2022)

Assays:
chABCD1 (chimeric ABCD1) [1] = biological target: T1, chABCD1 (chimeric ABCD1) (Homo sapiens, UniProt P33897); assay: ATPase assay (colorimetric Pi release); assay type: biochemical; conditions: varying ATP, with or without C22:0-CoA, 2 mM MgCl2, LMNG + CHS, pH 7.5, 37 °C; Michaelis-Menten fit
T1 construct: single polypeptide: N-terminal FLAG tag, PMP-4 residues 1-65 replacing human ABCD1 residues 1-63, then human ABCD1 64-745; HEK293F; homodimer; LMNG/CHS for assays, digitonin for cryo-EM; with PMP-4 (peroxisomal membrane protein related, ABCD1 homolog, Caenorhabditis elegans; N-terminal segment fused to the target chain)
T1 sequence (P33897 64-745): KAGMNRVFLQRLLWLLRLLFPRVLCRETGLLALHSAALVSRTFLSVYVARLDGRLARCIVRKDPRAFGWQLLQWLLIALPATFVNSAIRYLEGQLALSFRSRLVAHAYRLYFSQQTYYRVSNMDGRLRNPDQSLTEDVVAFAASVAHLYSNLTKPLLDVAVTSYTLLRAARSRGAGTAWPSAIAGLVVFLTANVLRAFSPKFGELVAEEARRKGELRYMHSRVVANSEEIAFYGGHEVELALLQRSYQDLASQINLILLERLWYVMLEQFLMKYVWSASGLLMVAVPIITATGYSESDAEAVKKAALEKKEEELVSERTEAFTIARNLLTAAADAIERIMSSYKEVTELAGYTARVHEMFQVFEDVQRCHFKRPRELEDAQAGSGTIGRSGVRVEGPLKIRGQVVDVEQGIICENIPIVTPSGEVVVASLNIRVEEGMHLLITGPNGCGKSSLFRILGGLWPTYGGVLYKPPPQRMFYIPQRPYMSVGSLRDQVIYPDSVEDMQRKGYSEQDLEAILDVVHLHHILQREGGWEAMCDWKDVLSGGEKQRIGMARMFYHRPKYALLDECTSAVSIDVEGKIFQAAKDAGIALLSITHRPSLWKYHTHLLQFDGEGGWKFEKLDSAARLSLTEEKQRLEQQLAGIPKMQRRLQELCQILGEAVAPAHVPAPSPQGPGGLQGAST

chABCD1 (chimeric ABCD1) [2] = biological target: T1, chABCD1 (chimeric ABCD1); assay: substrate-stimulated ATPase assay (colorimetric Pi release); assay type: biochemical
[3] = biological target: chimeric ABCD1, C-terminal helix truncated variant (ΔGlu694-Thr745) (Caenorhabditis elegans | human) (UniProt O45730)

| EC50 (chABCD1 (chimeric ABCD1) [2]) [nM] | Compound | also measured |
| --- | --- | --- |
| – | Nc1ncnc2c1ncn2[C@@H]1O[C@H](COP(=O)(O)OP(=O)(O)OP(=O)(O)O)[C@@H](O)[C@H]1O [ATP] | Km (chABCD1 (chimeric ABCD1) [1]): The data points were fitted with a Michaelis-Menten equation |
| ~2000 | CCCCCCCCCCCCCCCCCCCCCCCC(=O)SCCNC(=O)CCNC(=O)[C@H](O)C(C)(C)COP(=O)(O)OP(=O)(O)OC[C@H]1O[C@@H](n2cnc3c(N)ncnc32)[C@H](O)[C@@H]1OP(=O)(O)O [C24:0-CoA] | – |
| ~2000 | CCCCCCCCCCCCCCCCCCCCCCCCCC(=O)SCCNC(=O)CCNC(=O)[C@H](O)C(C)(C)COP(=O)(O)OP(=O)(O)OC[C@H]1O[C@@H](n2cnc3c(N)ncnc32)[C@H](O)[C@@H]1OP(=O)(O)O [C26:0-CoA] | – |
| – | chimeric ABCD1, C-terminal helix truncated variant (ΔGlu694-Thr745) (from UniProt O45730 1-65; P33897 64-693) | Vmax of C22:0-CoA-stimulated ATPase activity (LMNG + CHS, 2 mM ATP) (mol Pi/min/mol protein) [3]: 17.5 |
